Source: US20080221213A1, “Tablets Comprising a High Load of Strontium” (OSTEOLOGIX A/S SYMBION SCIENCE PARK, priority 2005, published 2008)

Experiment: Single oral dose pharmacokinetic study in humans (healthy male volunteers), serum strontium by ICP-MS
Conditions: by inverse regression on the dose-AUC model; 95% CI [1.073, 1.115]

For `O=C([O-])CC(=O)[O-].[Sr+2]` [strontium malonate], the “Bioequivalent dose to 2.0 g strontium ranelate (Protelos) in terms of AUC5 week” value was 1.09 g.
